The results in this text go back to US4132802A, “Benzoic acid derivative and benzenesulfonic acid mucolytic process” (Mead Johnson & Company, priority 1978, dated 1979).

Values joined by “and” are separate entries in the source; they are usually repeats but may differ in a detail not shown here. Equal values may be shown once. Read-outs that look alike come from different tables or passages of the source.

A short description of series [1]: Mucolytic activity: percent reduction in viscosity of sputum, cone-plate viscometer (method of Lieberman). As to conditions: for Relative molar potency compared to N-acetyl-L-cysteine: on a molar basis, N-acetyl-L-cysteine = 1; for Mucolytic activity compared to N-acetyl-L-cysteine (in words): compared with N-acetyl-L-cysteine. Set-up: species or system human. As for the experimental part: Mucolytic activity was determined using the method of J. Lieberman, Am. J. Resp. […] This is a viscometric method which employs a cone-plate viscometer (Brookfield Engineering Laboratories, Inc., Stoughton, Mass.). According to this method, a 2 ml. aliquot of a batch of purulent human sputum (obtained from bronchitic patients) is transferred to the center of the viscometer plate and the temperature is allowed to equilibrate. The plate is then rotated at gradually increasing speeds up to 100 r.p.m. during a 2-minute period. This reduces the amount of sputum on the test plate to 1 ml. and reduces the viscosity of the specimen to a reproducible value which is necessary because of the thixotropic properties of sputum. […] The test is repeated with N-acetyl-L-cysteine employing another aliquot of sputum to establish a control for comparison purposes. Relative molar potencies compared to N-acetyl-L-cysteine (NAC) can be determined by varying concentration of the test agent until approximately equivalent mucolytic activity is obtained.

Series [2] can be described thus: Toxicity (LD50, TD50) in the mouse. As to conditions: in vivo. From the text: The substances of Formula I are relatively non-toxic substances substantially free of other pharmacologic action.

As for `O=C(CS)Nc1ccc(C(=O)O)cc1` [Compound 1, 4-(2-MERCAPTOACETAMIDO)BENZOIC ACID], the “Percent reduction in viscosity” value in series [1] (0.005 Molar, 1 min, 5000 µM) is 32%; in series [1] (0.005 Molar, 3 min, 5000 µM), 50%; in series [1] (0.005 Molar, 6 min, 5000 µM) it was 57%; in series [1] (0.005 Molar, 9 min, 5000 µM) it was 55%; in series [1] (0.005 Molar, 12 min, 5000 µM), 55%; in series [1] (0.005 Molar, 15 min, 5000 µM), 55%. Besides, the “Percent reduction in viscosity” value in series [1] (0.01 Molar, 1 min, 10000 µM) stood at 45%; in series [1] (0.01 Molar, 3 min, 10000 µM), 63%; in series [1] (0.01 Molar, 6 min, 10000 µM), 69%; in series [1] (0.01 Molar, 9 min, 10000 µM), 76%; in series [1] (0.01 Molar, 12 min, 10000 µM), 82%; in series [1] (0.01 Molar, 15 min, 10000 µM), 84%. Besides, the “Relative molar potency compared to N-acetyl-L-cysteine” value in series [1] was “approximately 12 times”. The LD50 (commonly the dose expected to kill half of the subjects tested) in series [2] (ip, intraperitoneally, read-out: LD50) is 1110 mg/kg; in series [2] (oral, read-out: approximate LD50) it was approximately 2000 mg/kg. Besides, in series [2] (named in the same clause as the oral LD50, read-out: approximate TD50), the TD50 (usually the 50% point of the dose-response relation for the toxic effect studied) was approximately 250 mg/kg.
Regarding `O=C(CS)Nc1cccc(C(=O)O)c1` [Compound 2, 3-(2-MERCAPTOACETAMIDO)BENZOIC ACID], the “Percent reduction in viscosity” value was determined as 44% in series [1] (0.03 Molar, 1 min, 30000 µM); 67% in series [1] (0.03 Molar, 3 min, 30000 µM); 81% in series [1] (0.03 Molar, 6 min, 30000 µM); 89% in series [1] (0.03 Molar, 9 min, 30000 µM); 91% in series [1] (0.03 Molar, 12 min, 30000 µM); 93% in series [1] (0.03 Molar, 15 min, 30000 µM). Also, the “Mucolytic activity compared to N-acetyl-L-cysteine (in words)” value in series [1] is reported as “substantially more active than N-acetyl-L-cysteine”.
On to `O=C(CS)Nc1ccc(S(=O)(=O)O)cc1` [Compound 3, N-(2-MERCAPTOACETYL)SULFANILIC ACID], for which the “Percent reduction in viscosity” value in series [1] (0.005 Molar, 1 min, 5000 µM) came out at 34%; in series [1] (0.005 Molar, 3 min, 5000 µM), 47%; in series [1] (0.005 Molar, 6 min, 5000 µM) it was 50%; in series [1] (0.005 Molar, 9 min, 5000 µM) it was 50%; in series [1] (0.005 Molar, 12 min, 5000 µM), 47%; in series [1] (0.005 Molar, 15 min, 5000 µM), 44%. Moreover, the “Percent reduction in viscosity” value was 46% in series [1] (0.01 Molar, 1 min, 10000 µM); 64% in series [1] (0.01 Molar, 3 min, 10000 µM); 66% in series [1] (0.01 Molar, 6 min, 10000 µM); 68% in series [1] (0.01 Molar, 9 min, 10000 µM); 77% in series [1] (0.01 Molar, 12 min, 10000 µM); 82% in series [1] (0.01 Molar, 15 min, 10000 µM).
Take `O=C(CS)Nc1ccc(C(=O)NCCO)cc1` [Compound 4, N-(2-HYDROXYETHYL)-4-(2-MERCAPTOACETAMIDO)BENZAMIDE]: the “Percent reduction in viscosity” value in series [1] (0.001 Molar, 1 min) is 25%; in series [1] (0.001 Molar, 3 min, 1000 µM), 32%; in series [1] (0.001 Molar, 6 min, 1000 µM), 36%; in series [1] (0.001 Molar, 9 min, 1000 µM), 36%; in series [1] (0.001 Molar, 12 min, 1000 µM), 36%; in series [1] (0.001 Molar, 15 min, 1000 µM), 34%. Further, the “Percent reduction in viscosity” value in series [1] (0.002 Molar, 1 min, 2000 µM) came out at 26%; in series [1] (0.002 Molar, 3 min, 2000 µM), 37%; in series [1] (0.002 Molar, 6 min, 2000 µM), 42%; in series [1] (0.002 Molar, 9 min, 2000 µM) it was 44%; in series [1] (0.002 Molar, 12 min, 2000 µM) it was 44%; in series [1] (0.002 Molar, 15 min, 2000 µM), 42%. The “Percent reduction in viscosity” value in series [1] (0.005 Molar, 1 min, 5000 µM) amounted to 30%; in series [1] (0.005 Molar, 3 min, 5000 µM), 58%; in series [1] (0.005 Molar, 6 min, 5000 µM), 67%; in series [1] (0.005 Molar, 9 min, 5000 µM) it was 75%; in series [1] (0.005 Molar, 12 min, 5000 µM), 82%; in series [1] (0.005 Molar, 15 min, 5000 µM) it was 82%. Further, the “Relative molar potency compared to N-acetyl-L-cysteine” value in series [1] is on record as “approximately 15 times”.
Take `CC(=O)SCC(=O)Nc1ccc(C(=O)O)cc1` [Compound 5, 4-[2-(ACETYLTHIO)ACETAMIDO]BENZOIC ACID]: the “Percent reduction in viscosity” value in series [1] (0.03 Molar, 1 min, 30000 µM) is 34%; in series [1] (0.03 Molar, 3 min, 30000 µM), 42%; in series [1] (0.03 Molar, 6 min, 30000 µM), 54%; in series [1] (0.03 Molar, 9 min, 30000 µM), 54%; in series [1] (0.03 Molar, 12 min, 30000 µM) it was 52%; in series [1] (0.03 Molar, 15 min, 30000 µM), 48%. Further, in series [1], the “Mucolytic activity compared to N-acetyl-L-cysteine (in words)” value is listed as “significantly more active than N-acetyl-L-cysteine”.
`CC(=O)N[C@@H](CS)C(=O)O` [NAC, N-acetyl-L-cysteine, reference compound]: the “Percent reduction in viscosity” value in series [1] (0.03 Molar, 1 min, 30000 µM) was 25% and 29% and 33%; in series [1] (0.03 Molar, 3 min, 30000 µM) it was 32% and 33% and 34%; in series [1] (0.03 Molar, 6 min, 30000 µM), 40% and 36%; in series [1] (0.03 Molar, 9 min, 30000 µM), 42% and 40% and 34%; in series [1] (0.03 Molar, 12 min, 30000 µM), 42% and 43% and 34%; in series [1] (0.03 Molar, 15 min, 30000 µM), 40% and 34%. Moreover, the “Percent reduction in viscosity” value is listed as 36% in series [1] (0.06 Molar, 1 min, 60000 µM); 45% in series [1] (0.06 Molar, 3 min, 60000 µM); 52% in series [1] (0.06 Molar, 6 min, 60000 µM); 50% in series [1] (0.06 Molar, 9 min, 60000 µM); 52% in series [1] (0.06 Molar, 12 min, 60000 µM); 60% in series [1] (0.06 Molar, 15 min, 60000 µM).
